“Also recorded” adds a separate entry of the source.
Tested on: α-tubulin deacetylation
Assay: acetylated α-tubulin in cells (AcTubulin cytoblot, immunofluorescence, Western blot)
Format: cell-based, human
Conditions: for effect on tubulin deacetylation / α-tubulin acetylation in cells: A549 (also BS-C-1) cells, tubacin/JCWII114, niltubacin/JCWII153 2 μM, TSA 100 nM-4 μM, library ~2-5 μM, 18 h
Procedure: A549 cells were seeded at a density of 4,000 cells/50 μl in DMEM+ in white tissue culture-treated 384-well plates (Nalge Nunc) using a Multidrop 384 liquid dispenser (Labsystems). Library small molecules were pinned twice (100-150 nl/pin) from ˜1 mM stock solutions (DMSO) and incubated for 18 hours. For the ITSA1+AcTubulin assay, ITSA1 (50 μM) was added four hours after pin-transfer of library molecules. Media was aspirated with a 16-channel wand. For the acetylated α-tubulin cytoblot (AcTubulin), 40 μl/well of fixation solution (3.7% formaldehyde (1:10 from 37% stock) in Tris-buffered saline (TBS, 0.15 M NaCl, 0.02 M Tris-Cl, pH 7.4) was added and plates incubated for twenty minutes at room temperature. After aspiration, 30 μl 100% methanol (−20° C.) was added and incubated for five minutes at room temperature. After aspirating and washing three times with 90 μl of antibody dilution buffer (ADB, TBS/2% bovine serum albumin, 0.1% TritonX-100) the wells were blocked for twenty minutes in ADB. After aspirating, 20 μl/well of ADB containing anti-acetylated α-tubulin antibody (mouse; 1:1000) and anti-mouse IgG horseradish peroxidase (HRP)-conjugated antibody (1:750) was added and incubated overnight (4° C.). For the anti-acetyl lysine cytoblot (AcLysine), 40 μl/well of fixation solution (95% ethanol/5% acetic acid, −20° C.) was added and plates incubated for five minutes at room temperature. Wells were aspirated, washed, and blocked in ADB as for the AcTubulin protocol. After aspirating, 20 μl/well of ADB containing anti-acetylated lysine (rabbit; 1:375) and anti-rabbit IgG-HRP conjugated antibody (1:750) was added and incubated overnight (4° C.). For the anti-acetylated histone H3 (AcHistH3) and anti-acetylated histone H4 (AcHistH4) cytoblots, cells were fixed, washed, and blocked in ADB as for the AcLysine cytoblot. After aspirating, 20 μl/well of ADB containing anti-acetylated histone H3 antibody (rabbit, 1:500) or anti-acetylated histone H4 antibody (rabbit, 1:500) was added and incubated for two hours at room temperature. Wells were aspirated and washed twice with 80 μl of ADB. After aspirating, 20 μl/well of ADB containing anti-rabbit IgG-HRP conjugated antibody (1:1000) was added and incubated for two hours (room temperature). For the AcTubulin and AcLysine assays, plates were washed three times with TBS before adding 20 μl/well of enhanced chemiluminescent (ECL) mixture. For the AcHistH3 and AcHistH4 assays, plates were washed three times with 80 μl TBS with 1% Triton X-100 and once with 80 μl TBS before adding 20 μl/well of ECL mixture. Plates were read on an Analyst plate reader (LJL Biosystems) with an integration time of 0.1 seconds.
1,3-dioxanes from single polystyrene macrobeads were prepared as 1-2 mM stock solutions in DMSO as described [Hubbert, C., Guardiola, A., Shao, R., Kawaguchi, Y., Ito, A., Nixon, A., Yoshida, M., Wang, X. F., and Yao, T. P. (2002). HDAC6 is a microtubule-associated deacetylase. Nature 417, 455-458]. Bead decoding and structure determination were as described [See for example, Hubbert, C., Guardiola, A., Shao, R., Kawaguchi, Y., Ito, A., Nixon, A., Yoshida, M., Wang, X. F., and Yao, T. P. (2002). HDAC6 is a microtubule-associated deacetylase. Nature 417, 455-458; and Piperno, G., LeDizet, M., and Chang, X. J. (1987). Microtubules containing acetylated alpha-tubulin in mammalian cells in culture. J. Cell Biol. 104, 289-302]. Small molecules (˜2-5 μM) of interest were retested using a sample from the plate of stock solutions by fluorescence microscopy and comparison to the effects of trichostatin (300 nM to 1 μM).
A549 cells were seeded at a density of 50,000/200 μl in DMEM+ on the surface of glass coverslips on top of Parafilm in a 10 cm dish and allowed to attach overnight. For detection of acetylated α-tubulin, cells were permeabilized and fixed with 100 mM K-PIPES, pH 6.8, 10 mM EGTA, 1 mM MgCl2, 0.2% triton X-100, 0.2% glutaraldehyde for fifteen minutes. […]

CC(/C=C/C(=O)NO)=C\[C@@H](C)C(=O)c1ccc(N(C)C)cc1 [TSA, trichostatin A, reference compound]
effect on tubulin deacetylation / α-tubulin acetylation in cells: an inhibitor of both α-tubulin and histone deacetylation; also recorded: Increased α-tubulin acetylation upon TSA (4 μM) treatment (24 h)

O=C(CCCCCCC(=O)Nc1ccc([C@@H]2OC(c3ccc(CO)cc3)C[C@H](CSc3nc(-c4ccccc4)c(-c4ccccc4)o3)O2)cc1)NO (some centres unmarked) [tubacin]
effect on tubulin deacetylation / α-tubulin acetylation in cells: Increased acetylated α-tubulin induced by tubacin; also recorded: Reversibility of tubacin-induced (2 μM; 5 h) α-tubulin acetylation; also recorded: strongly increased α-tubulin acetylation levels; also recorded: potent (FIG. 41E), selective (FIG. 41F; FIG. 46A), and reversible (FIG. 46B) inhibitor of α-tubulin deacetylation; also recorded: always increased α-tubulin acetylation levels | effect on tubulin deacetylation / α-tubulin acetylation in cells (listed as 415 N3): strongly increased α-tubulin acetylation | effect on tubulin deacetylation / α-tubulin acetylation in cells (listed as JCWII114): potently and selectively inhibited tubulin deacetylation | concentration at which α-tubulin acetylation is increased (A549 cells, 4 h, data not shown): ≥ 125 nM

— patent publication US8178579B2, “Dioxanes and uses thereof” (President and Fellows of Harvard College, priority 2001, dated 2012)
